Experimental data published in US20240082212A1, “USE OF MDMA FOR TREATMENT OF STRESS-RELATED DISORDERS” (priority 2022, published 2024).
“And” between values parts separate entries of the source, which are not always exact repeats. Equal values may be shown once. “Also recorded” adds a separate entry of the source.

Columns and labels:
cortical neurons = test: Neurite outgrowth in embryonic rat cortical neuron cultures; assay type: cell-based; conditions: 10 μM, 3 days, vs 0.1% sterile water vehicle
How it was run: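 Cortical neurons from E17 Wistar rat embryos were treated with compound for 3 days, then fixed and stained for βIII-tubulin. Neurite count, total length and branch points per neuron were measured by high-content imaging. Values are expressed as % of vehicle, n=12 wells from two cultures, with ANOVA and Dunnett's test.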

CD (Sprague Dawley) rats = test: Rat telemetry: heart rate, blood pressure, body temperature, activity after cumulative SC dosing; assay type: in vivo; conditions: for Rank Order Blood Pressures (Systolic, Diastolic, and Mean Arterial) Effects / Rank Order Body Temperature Effects / Rank Order General Activity Effects / Rank Order Heart Rate Measurement Effects: telemetry, cumulative SC dosing, dose groups stated in the value
Description: Methods. A total of 42 adult male CD® (Sprague Dawley) rats (Charles River Laboratories) were surgically implanted with DSI radiotelemetry devices by personnel at Charles River Laboratories Raleigh, NC, per their test site SOPs. Telemetry devices supported continuous recording of temperature, activity, blood pressure and heart rate. Telemeterized rats were shipped to the Charles River Laboratories testing facility (Mattawan, MI) and acclimated to the environment for at least 1 week prior to experimentation. Animals were pair-housed in solid bottom cages with nonaromatic bedding. On the dosing day, animals were singly housed and then returned to the paired cohort following the dosing/telemetry recording phase. Diet (Lab Diet® Certified Rodent Diet #5CR4) and tap water via an automatic water system were available ad libitum, except during designated procedures. Temperature and humidity were maintained according to the Testing Facility SOP. Animals were randomized into treatment groups using a standard, by weight, measured value randomization procedure. Body weight was determined for each rat prior to dosing.
As illustrated in the Table, a total of 36 rats were included in the study. The vehicle and 2 test article doses were administered in a volume of 1 mL/kg to each of 3 groups of n=12 telemeterized rats via subcutaneous injection four times on a given day, followed by neurobehavioral evaluations. This series was repeated 3 times on study. Each group received all 3 dose levels of the applicable test or control article in ascending order with a 1-week washout between dose levels.
Mortality/cage side clinical observations were conducted for all study animals at least twice daily beginning upon receipt through termination, except on days of receipt and termination where frequency was at least once daily. Detailed clinical observations were conducted for all study animals prior to each of the four cumulative doses in a series. Individual body weights were conducted for all study animals at transfer, prior to randomization, on the day of dosing on each of the 3 cycles of dosing. The body weights recorded at transfer and prior to randomization are not reported but are maintained in the study file. Veterinary care was available throughout the course of the study, and animals were examined by the veterinary staff as needed based on clinical signs or other changes. All animals were provided with HydroGel the night prior to their respective dosing days to potentially mitigate any animal welfare issues related to fluid loss/dehydration.
Telemetry monitoring was conducted for all animals 2 hours prior to dosing and through to 7.5 hours following the last (4th) cumulative dose of each series, which included continuous data collection of body temperature, activity, heart rate, and blood pressure (systolic, diastolic, and mean arterial) using telemetry.
The total period of time over which the statistical analyses were conducted encompassed the entire dosing period for all animals (i.e., Dose 1 through 7.5 hour post-4th dose) in an effort to draw conclusions regarding the effects of the dosing procedure and cumulative changes by allowing comparisons between the cumulative dosing periods. The following statistical analyses were performed for each analysis segment.
All time-series data comparisons conducted via statistical analysis are relative to the control treatment and are based on the LSMean values. Additionally, the change values used for the statistical analysis were calculated using a baseline of the 2 hours of pre-dose data, prior to the first compound injection of the series. The raw change values were analyzed.

[1] = Rat brain monoamine and metabolite concentrations 1 week after cumulative SC dosing; conditions: for 5-HIAA mean brain concentration / 5-HT mean brain concentration: frontal cortex; for 5-HIAA mean brain concentration / 5-HT mean brain concentration / DA mean brain concentration / DOPAC mean brain concentration / HVA mean brain concentration: male rat; for DA mean brain concentration / DOPAC mean brain concentration / HVA mean brain concentration: striatum
[2] = maximum change, R-MDMA and racemic MDMA 10, 20 mg/kg/day, S-MDMA 5, 10 mg/kg/day, 4 hourly SC injections
[3] = racemic MDMA 20 mg/kg/day, S-MDMA 10 mg/kg/day, approximate
[4] = 1 week after 4 hourly SC injections of 2.5 mg/kg
[5] = 1 week after 4 hourly SC injections of 5 mg/kg
[6] = 1 week after 4 hourly SC injections of 5 mg/kg, 5 mg/kg
[7] = 1 week after 4 hourly SC injections of 10 mg/kg, N=2
[8] = 1 week after 4 hourly SC injections of 10 mg/kg, N=2, 10 mg/kg

Compound: CNC(C)Cc1ccc2c(c1)OCO2 (racemic) [Racemic MDMA, 3,4-methylenedioxymethamphetamine]
- neurite number (#) (cortical neurons): significantly increased
- neurite total length (μm) (cortical neurons): significantly increased
- total number of branch points (#) (cortical neurons): significantly increased
- hemodynamic parameters (systolic/diastolic/mean arterial blood pressures and heart rate) (CD (Sprague Dawley) rats; 4 hourly SC injections, cumulative doses 5, 10, or 20 mg/kg/day): dose-dependent blood pressure-increasing effects
- body temperature response (CD (Sprague Dawley) rats; S-MDMA 5, 10 mg/kg/day, racemic-MDMA 10, 20 mg/kg/day, 4 hourly SC injections): hyperthermic response
- activity (implanted telemetry devices) (CD (Sprague Dawley) rats; all cumulative doses (5, 10, or 20 mg/kg/day)): Activity-increasing effects
- blood pressure increase [mean arterial pressure] (CD (Sprague Dawley) rats; [2]): up to +46%
- heart rate increase (CD (Sprague Dawley) rats; [2]): up to +37%
- peak body temperatures (CD (Sprague Dawley) rats; overall mean magnitude of change, 4 hourly SC injections): 40.0 °C
- period of significantly increased body temperature compared to R-MDMA (10 mg/kg/day) (CD (Sprague Dawley) rats; [3]): 1-4 hours post initiation of dosing
- period of significantly increased heart rate compared to R-MDMA (10 mg/kg/day) (CD (Sprague Dawley) rats; [3]): 3-10 hours post initiation of dosing
- period of significantly increased mean arterial blood pressure compared to R-MDMA (10 mg/kg/day) (CD (Sprague Dawley) rats; [3]): 1-3 hours post initiation of dosing
- period of significantly increased systolic blood pressure compared to R-MDMA (10 mg/kg/day) (CD (Sprague Dawley) rats; [3]): 1-3 hours post initiation of dosing
- Rank Order Blood Pressures (Systolic, Diastolic, and Mean Arterial) Effects (CD (Sprague Dawley) rats; listed as Rac-MDMA): R-MDMA (20 mg/kg/day) < S-MDMA (10 mg/kg/day) < Rac-MDMA (20 mg/kg/day); also recorded: Rac-MDMA (0 mg/kg/day) < Rac-MDMA (10 mg/kg/day) < Rac-MDMA (20 mg/kg/day); also recorded: R-MDMA (10 mg/kg/day) < S-MDMA (10 mg/kg/day) < Rac-MDMA (20 mg/kg/day)
- Rank Order Body Temperature Effects (CD (Sprague Dawley) rats; listed as Rac-MDMA): R-MDMA (20 mg/kg/day) < S-MDMA (10 mg/kg/day) < Rac-MDMA (20 mg/kg/day); also recorded: Rac-MDMA (0 mg/kg/day) < Rac-MDMA (10 mg/kg/day) < Rac-MDMA (20 mg/kg/day); also recorded: R-MDMA (10 mg/kg/day) < S-MDMA (10 mg/kg/day) < Rac-MDMA (20 mg/kg/day)
- Rank Order General Activity Effects (CD (Sprague Dawley) rats; listed as Rac-MDMA): R-MDMA (20 mg/kg/day) < S-MDMA (10 mg/kg/day) < Rac-MDMA (20 mg/kg/day); also recorded: Rac-MDMA (0 mg/kg/day) < Rac-MDMA (10 mg/kg/day) < Rac-MDMA (20 mg/kg/day); also recorded: R-MDMA (10 mg/kg/day) < S-MDMA (10 mg/kg/day) < Rac-MDMA (20 mg/kg/day)
- Rank Order Heart Rate Measurement Effects (CD (Sprague Dawley) rats; listed as Rac-MDMA): R-MDMA (20 mg/kg/day) < S-MDMA (10 mg/kg/day) < Rac-MDMA (20 mg/kg/day); also recorded: Rac-MDMA (0 mg/kg/day) < Rac-MDMA (10 mg/kg/day) < Rac-MDMA (20 mg/kg/day); also recorded: R-MDMA (10 mg/kg/day) < S-MDMA (10 mg/kg/day) < Rac-MDMA (20 mg/kg/day)
- Rank Order Blood Pressures (Systolic, Diastolic, and Mean Arterial) Effects (CD (Sprague Dawley) rats; listed as Rac.-MDMA): R-MDMA (10 mg/kg/day) < S-MDMA (5 mg/kg/day) < Rac.-MDMA (10 mg/kg/day)
- Rank Order Body Temperature Effects (CD (Sprague Dawley) rats; listed as Rac.-MDMA): R-MDMA (10 mg/kg/day) < S-MDMA (5 mg/kg/day) < Rac.-MDMA (10 mg/kg/day)
- Rank Order General Activity Effects (CD (Sprague Dawley) rats; listed as Rac.-MDMA): R-MDMA (10 mg/kg/day) < S-MDMA (5 mg/kg/day) < Rac.-MDMA (10 mg/kg/day)
- Rank Order Heart Rate Measurement Effects (CD (Sprague Dawley) rats; listed as Rac.-MDMA): R-MDMA (10 mg/kg/day) < S-MDMA (5 mg/kg/day) < Rac.-MDMA (10 mg/kg/day)
- frontal cortex 5-HT (serotonin) compared to vehicle ([1]; cumulative SC, 5 mg/kg/injection, 1 week after dosing): significantly reduced frontal cortex 5-HT concentrations
- 5-HIAA mean brain concentration [1, 4]: 368.17 ng/g
- 5-HT mean brain concentration [1, 4]: 183.90 ng/g
- 5-HIAA mean brain concentration [1, 5]: 234.63 ng/g
- 5-HT mean brain concentration [1, 6]: 88.38 ng/g and 88.38 b** n* p* ng/g
- 5-HIAA mean brain concentration [1, 7]: 235.00 ng/g
- 5-HT mean brain concentration [1, 7]: 100.85 ng/g
- DA mean brain concentration [1, 4]: 5956.67 ng/g
- DOPAC mean brain concentration [1, 4]: 1811.00 ng/g
- HVA mean brain concentration [1, 4]: 706.83 ng/g
- DA mean brain concentration [1, 5]: 5190.63 ng/g
- HVA mean brain concentration [1, 5]: 577.00 ng/g
- DOPAC mean brain concentration [1, 6]: 1962.75 ng/g and 1962.75 h** ng/g
- DA mean brain concentration [1, 7]: 7405.00 ng/g
- DOPAC mean brain concentration [1, 8]: 2015.00 ng/g and 2015.00 h* ng/g
- HVA mean brain concentration [1, 8]: 923.50 ng/g and 923.50 d**h* ng/g
